Results reported in PubChem BioAssay (NCI).
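Results reflect a 48-hour exposure of cells in 96-well plates to compound at five concentrations. At the TGI there is no net growth.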

Experiments:
Test in all cases: DTP human tumour cell line panel, 48 h
UO-31 renal = test system: UO-31 renal
SNB-78 CNS = test system: SNB-78 CNS
M19-MEL melanoma = test system: M19-MEL melanoma
HL-60(TB) leukemia = test system: HL-60(TB) leukemia
TK-10 renal = test system: TK-10 renal
NCI-H23 lung = test system: NCI-H23 lung
MOLT-4 leukemia = test system: MOLT-4 leukemia
XF 498 CNS = test system: XF 498 CNS
SN12C renal = test system: SN12C renal
SR leukemia = test system: SR leukemia
SW-620 colon = test system: SW-620 colon
DMS 114 small cell lung = test system: DMS 114 small cell lung
SNB-75 CNS = test system: SNB-75 CNS
HCT-15 colon = test system: HCT-15 colon
EKVX NSCLC = test system: EKVX NSCLC
LOX IMVI melanoma = test system: LOX IMVI melanoma
KM12 colon = test system: KM12 colon
OVCAR-4 ovarian = test system: OVCAR-4 ovarian
RXF 393 renal = test system: RXF 393 renal
CAKI-1 renal = test system: CAKI-1 renal
HOP-62 NSCLC = test system: HOP-62 NSCLC
U251 CNS = test system: U251 CNS
SF-268 CNS = test system: SF-268 CNS
RPMI-8226 leukemia = test system: RPMI-8226 leukemia
COLO 205 colon = test system: COLO 205 colon
LXFL 529 NSCLC = test system: LXFL 529 NSCLC
KM20L2 colon = test system: KM20L2 colon
SK-MEL-5 melanoma = test system: SK-MEL-5 melanoma
SK-OV-3 ovarian = test system: SK-OV-3 ovarian
HT29 colon = test system: HT29 colon
MALME-3M melanoma = test system: MALME-3M melanoma
OVCAR-3 ovarian = test system: OVCAR-3 ovarian
ACHN renal = test system: ACHN renal
SK-MEL-2 melanoma = test system: SK-MEL-2 melanoma
786-0 renal = test system: 786-0 renal
SNB-19 CNS = test system: SNB-19 CNS
HOP-92 NSCLC = test system: HOP-92 NSCLC
M14 melanoma = test system: M14 melanoma
SF-539 CNS = test system: SF-539 CNS
OVCAR-8 ovarian = test system: OVCAR-8 ovarian
SF-295 CNS = test system: SF-295 CNS
DLD-1 colon = test system: DLD-1 colon
HOP-18 NSCLC = test system: HOP-18 NSCLC
K-562 leukemia = test system: K-562 leukemia
RXF-631 renal = test system: RXF-631 renal
HCT-116 colon = test system: HCT-116 colon
CCRF-CEM leukemia = test system: CCRF-CEM leukemia
UACC-62 melanoma = test system: UACC-62 melanoma
HCC-2998 colon = test system: HCC-2998 colon
DMS 273 small cell lung = test system: DMS 273 small cell lung
SK-MEL-28 melanoma = test system: SK-MEL-28 melanoma
NCI-H460 lung = test system: NCI-H460 lung
IGROV1 ovarian = test system: IGROV1 ovarian
UACC-257 melanoma = test system: UACC-257 melanoma
OVCAR-5 ovarian = test system: OVCAR-5 ovarian
A549 NSCLC = test system: A549 NSCLC
NCI-H226 lung = test system: NCI-H226 lung
A498 renal = test system: A498 renal
NCI-H522 lung = test system: NCI-H522 lung

Measured: TGI

COc1ccc(/C=N/Nc2nc(-c3cc4oc(=O)n(C)c4cc3Cl)cs2)cc1OC
91.8 µM: HCT-15 colon
62.3 µM: ACHN renal
39 µM: DMS 114 small cell lung
51 µM: IGROV1 ovarian
77.1 µM: HOP-92 NSCLC
36.2 µM: A549 NSCLC
31.9 µM: OVCAR-4 ovarian
62.6 µM: RXF 393 renal
88.5 µM: XF 498 CNS | SN12C renal
14.7 µM: SK-MEL-5 melanoma
69.5 µM: SNB-75 CNS
not listed: NCI-H226 lung | A498 renal | NCI-H522 lung
> 100 µM: all other assays above

NC(=Nc1ccc(S(=O)(=O)Nc2cnc3ccccc3n2)cc1)/N=C(/N)Nc1ccc(Br)cc1
not listed: HL-60(TB) leukemia | RXF 393 renal | HCT-116 colon
> 100 µM: all other assays above

N#CC1(Cc2ccccc2)CCCCN1C(=O)c1ccccc1 (stereo not drawn)
9.11 µM: SK-MEL-2 melanoma
not listed: CAKI-1 renal | NCI-H226 lung | NCI-H522 lung
> 100 µM: all other assays above
